Results: paper PMC117120 (BMC Biochemistry, 2002)
Substitutions are numbered along the chain they refer to. Where “and” joins values, the source holds several entries; their conditions need not be identical. Identical values can stand only once.

Legend:
[1] = biological target: T1, Y140A mutant mouse 5-HT3ASR (Mus musculus, UniProt P23979, Y141A); assay: Inhibition of [^3H]granisetron binding, Y140A receptor; conditions: for relative increase in Ki, mutant vs wildtype: Y140A vs wildtype
T1 sequence (P23979 24-483 isoform P23979-2 Y141A): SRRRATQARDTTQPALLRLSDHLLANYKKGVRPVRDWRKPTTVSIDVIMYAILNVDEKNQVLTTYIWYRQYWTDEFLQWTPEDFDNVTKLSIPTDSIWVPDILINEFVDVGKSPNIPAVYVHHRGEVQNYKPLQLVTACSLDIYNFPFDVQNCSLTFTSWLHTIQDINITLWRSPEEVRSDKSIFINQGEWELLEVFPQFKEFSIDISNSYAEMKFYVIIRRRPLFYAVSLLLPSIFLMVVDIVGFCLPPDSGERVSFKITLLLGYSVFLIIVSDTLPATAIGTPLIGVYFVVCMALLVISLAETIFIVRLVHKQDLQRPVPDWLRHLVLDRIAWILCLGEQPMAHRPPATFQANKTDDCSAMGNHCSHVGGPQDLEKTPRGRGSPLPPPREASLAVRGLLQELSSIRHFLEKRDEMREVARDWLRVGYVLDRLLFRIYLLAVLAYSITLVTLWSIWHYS

wildtype mouse 5-HT3ASR = biological target: T2, wildtype mouse 5-HT3ASR (Mus musculus, UniProt P23979); assay: biochemical
T2 sequence (P23979 24-483 isoform P23979-2 limits assumed): T1 sequence (P23979 24-483 isoform P23979-2 Y141A) with A118Y

[2] = biological target: T3, H145A mutant mouse 5-HT3ASR (Mus musculus, UniProt P23979, H146A); assay: biochemical
T3 sequence (P23979 24-483 isoform P23979-2 H146A): T1 sequence (P23979 24-483 isoform P23979-2 Y141A) with A118Y, H123A

[3] = biological target: T4, V141A mutant mouse 5-HT3ASR (Mus musculus, UniProt P23979, V142A); assay: biochemical
T4 sequence (P23979 24-483 isoform P23979-2 V142A): T1 sequence (P23979 24-483 isoform P23979-2 Y141A) with A118Y, V119A

[4] = biological target: T5, K153A mutant mouse 5-HT3ASR (Mus musculus, UniProt P23979, K154A); assay: biochemical
T5 sequence (P23979 24-483 isoform P23979-2 K154A): T1 sequence (P23979 24-483 isoform P23979-2 Y141A) with A118Y, K131A

[5] = biological target: T6, R146A mutant mouse 5-HT3ASR (Mus musculus, UniProt P23979, R147A); assay: biochemical
T6 sequence (P23979 24-483 isoform P23979-2 R147A): T1 sequence (P23979 24-483 isoform P23979-2 Y141A) with A118Y, R124A

SMILES | Ki [1] [nM] | relative increase in Ki, mutant vs wildtype [1] | Ki (wildtype mouse 5-HT3ASR) [nM] | Ki [2] [nM] | Ki [3] [nM] | Ki [4] [nM] | Ki [5] [nM]
COc1cc2c3cc1Oc1cc(ccc1O)C[C@@H]1c4c(cc(OC)c(O)c4Oc4ccc(cc4)C[C@@H]3N(C)CC2)CC[N+]1(C)C [d-tc, d-tubocurarine] | 300 ± 120 | 50 ± 12 fold and 50 fold | 6 ± 2.1 | 19 ± 2.6 | 4.7 ± 0.87 | 17 ± 3 | 29 ± 4.9
c1ccc(Cn2c(N3CCNCC3)nc3ccccc32)cc1 [lerisetron] | 2.1 ± 0.33 | 4.6 fold | 0.8 ± 0.19 | 0.42 ± 0.04 | 0.2 ± 0.02 | 3 ± 0.66 | 2.3 ± 0.31
